These results are taken from PubChem BioAssay (NCI).

Experiment in all cases: DTP human tumour cell line panel, 48 h
The test system of assay [1] is HT29 colon.
Assay [2] has as its system SNB-75 CNS.
Assay [3] has as its system HCC-2998 colon.
The subject of assay [4] is SK-MEL-2 melanoma.
The subject of assay [5] is OVCAR-8 ovarian.
Assay [6] deals with SK-OV-3 ovarian.
Assay [7] relates to HOP-62 NSCLC.
Assay [8] concerns HOP-92 NSCLC.
Assay [9] concerns CAKI-1 renal.

Each structure is given as a SMILES string.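 96-well plates; 48 h exposure; 5 concentrations. Endpoints by linear interpolation between flanking doses. Not reached: highest tested concentration assigned. TGI marks complete inhibition of growth.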

For `Cc1cccc(N2C(=O)C(Cl)=C(Cl)C2=O)c1`, the TGI in [1], in assay [2], in assay [3], in [4], in assay [5] and in assay [6] was greater than 100 µM each time. Moreover, the concentration for total growth inhibition (TGI) was greater than 100 µM in assay [7], greater than 78.6 µM in assay [8] and greater than 56.9 µM in assay [9].
For the molecule `COC(=O)C(=O)C(C(=O)C(=O)Nc1ccc(C)cc1C)c1nc2ccccc2[nH]c1=O` (configuration not stated), the TGI in assay [1] was greater than 100 µM; in [2], 69.2 µM; in assay [3], greater than 100 µM; in [4], greater than 100 µM; in assay [5], greater than 100 µM; in [6], greater than 100 µM. In addition, the TGI in assay [7] is greater than 100 µM; in [9], 68.9 µM.
For the molecule `C#CC[C@]12CC(=O)CC[C@H]1CC(=O)C2`, the TGI in [2], in assay [3], in assay [4], in assay [5], in assay [6] and in [7] was greater than 100 µM in each case. This molecule gave a TGI in [9] greater than 100 µM.
`O=C(CC(=O)N1N=C(c2ccccc2)C(N=Nc2ccc(Cl)cc2)C1=O)Nc1ccccc1Cl` (configuration not stated): the total growth inhibition concentration (TGI) in assay [1] is greater than 100 µM; in [2] it was 41.3 µM; in assay [3], greater than 100 µM; in [4], 88.6 µM; in assay [6], 40.4 µM; in assay [7], 40.6 µM. The molecule further displayed a concentration for total growth inhibition (TGI) in assay [9] of 85.1 µM.
Consider `N#Cc1cnsc1`, for which the TGI in [1], in assay [2], in assay [3], in [4], in assay [5] and in assay [6] was greater than 100 µM throughout. Also, the concentration for total growth inhibition (TGI) in [7], in assay [8] and in assay [9] was greater than 100 µM in each case.
Take `CC(=O)c1ccc(NC(=O)/C(Cc2ccccn2)=N/NC(=O)C[N+](C)(C)C)cc1`: the TGI in assay [1], in assay [2], in [3], in assay [4], in assay [5] and in [6] was greater than 100 µM throughout. Moreover, the concentration for total growth inhibition (TGI) in assay [7] and in assay [9] was greater than 100 µM each time.
For `COc1cc(Cc2cc(OC)c(OC)c(OC)c2)ccc1O`, the TGI in assay [1] is greater than 100 µM; in [2] it was 28.6 µM; in [3] it was greater than 100 µM; in assay [4], 64.5 µM; in assay [5], greater than 100 µM; in assay [6], greater than 100 µM. Besides, the TGI in [7], in [8] and in assay [9] was greater than 100 µM in each case.
On to `COC(=O)C(=O)C(C(=O)C=C(C)C)C(=O)C(=O)Nc1ccc(Cl)cc1C` (configuration not stated), for which the TGI in [1], in assay [2], in assay [3], in assay [4], in [5] and in assay [6] was greater than 100 µM each time. In addition, the TGI in assay [7], in [8] and in assay [9] was greater than 100 µM throughout.
With `NC1C2(CCCCCC2)NC(=O)C12CCCCCC2` (configuration not stated), the TGI in assay [1], in assay [2], in assay [4], in assay [5], in assay [6] and in assay [7] was greater than 100 µM in each case. The TGI in assay [8] and in assay [9] was greater than 100 µM in each case.
Take `CC(C)=CC(=O)N1CCN(C(=O)C=C(C)C)CC1`: the TGI in [1], in [2], in assay [3], in assay [5], in assay [6] and in [7] was greater than 100 µM each time. Further, the concentration for total growth inhibition (TGI) in assay [8] and in [9] was greater than 100 µM in each case.
On to `O=C1C2=C(CC3C(C2)C3(Br)Br)C(=O)C2=C1CC1C(C2)C1(Br)Br` (configuration not stated), for which the total growth inhibition concentration (TGI) in [1], in [2], in assay [3], in assay [4], in [5] and in assay [6] was greater than 100 µM throughout. The total growth inhibition concentration (TGI) in assay [7], in assay [8] and in assay [9] was greater than 100 µM in each case.
Take `N#CCCN(c1ccc(/C=C2\N=C(c3ccc(Cl)cc3)OC2=O)cc1)S(=O)(=O)c1ccccc1`: the concentration for total growth inhibition (TGI) in [1], in assay [2], in assay [3], in assay [4], in assay [5] and in [6] was greater than 100 µM each time. For the same molecule, the concentration for total growth inhibition (TGI) in assay [7] and in assay [9] was greater than 100 µM in each case.
As to `Nc1c(-c2ccc(Br)cc2)[n+]([O-])c2ccccc2[n+]1[O-]`, the TGI in assay [1], in assay [2], in assay [4], in assay [5], in [6] and in [7] was greater than 100 µM each time. Besides, the TGI in assay [8] and in [9] was greater than 100 µM throughout.
Regarding `CCOC(=O)NC(=O)c1cn(CCCOC(=O)NCCCCCCNC(=O)OCCCn2c(=O)c(C(=O)NC(=O)OCC)cn(C)c2=O)c(=O)n(C)c1=O`, the concentration for total growth inhibition (TGI) in [1] was greater than 100 µM; in [2], 93.9 µM; in [3] it was greater than 100 µM; in assay [4], greater than 100 µM; in [5], greater than 100 µM; in [6], greater than 100 µM. The TGI in assay [8] and in assay [9] was greater than 100 µM throughout.
In the case of `N#CCCN(CCC#N)c1ccc(/C=C2\N=C(CN3C(=O)c4ccccc4C3=O)OC2=O)cc1`, the TGI in [1], in [2], in [3], in [4], in assay [5] and in assay [6] was greater than 100 µM throughout. The TGI in [7] and in [9] was greater than 100 µM throughout.
As for `Cc1ccc(N=NC(C(=O)c2ccccc2)C(=O)c2ccccc2)cc1`, the concentration for total growth inhibition (TGI) is 62.2 µM in [1]; 93.4 µM in assay [2]; greater than 100 µM in assay [3]; 55.4 µM in [4]; greater than 100 µM in assay [5]; 96 µM in [6]. Besides, the TGI in assay [7] was found to be 71.9 µM; in assay [8], 41.5 µM; in [9], 85 µM.
